# Source: patent publication US20090004185A1, “AMINO-SUBSTITUTED QUINAZOLINE DERIVATIVES AS INHIBITORS OF BETA-CATENIN/TCF-4 PATHWAY AND CANCER TREATMENT AGENTS” (WYETH, priority 2007, published 2009)
# Legend:
# [1] = system: SV40-Luc; assay: SV40-Luc control luciferase reporter assay, SV 5A8 cell line (SV40-Luc and SV40-R-Luc), control for non-specific inhibitors; type: cell-based, human; conditions: SV 5A8 cells derived from SW480, 24 hours of incubation with compound, ratio Firefly/Renilla luciferase
# Summary of the method: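 Dual-luciferase readout in SW480 lines with chromosomally integrated reporters, namely Tcf-4-driven firefly in Tcf 33.13 and Tcf 22C11, and SV40-driven firefly in SV 5A8, all with SV40-Renilla. Compound incubation is 24 h; IC50 comes from the normalised F/R ratio.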
# [2] = system: β-catenin/Tcf-4; assay: cells; type: cell-based; conditions: 24 hours of incubation with compound, ratio Firefly/Renilla luciferase
# Summary of the method: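 SW480-derived lines with integrated reporters (Tcf-4-driven firefly luciferase; SV40 firefly as specificity control; SV40 Renilla for cell number/toxicity), treated 24 hours with titrated compounds, final 0.316% DMSO. Dual-luciferase read-out; firefly/Renilla ratio as % of control, duplicate plates, IC50 (nM) from curve fit.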
# [3] = Homo sapiens, SW480, 24 h, Tcf 33.13 cells derived from SW480
# [4] = Homo sapiens, Tcf22C11, 24 h, Tcf 22C11 cells derived from SW480
Structure (SMILES),"IC50 ([1]; Homo sapiens, SV5A8, 24 h)","IC50 [2, 3]","IC50 [2, 4]",IC50 [1],IC50 ([2]; Tcf 22C11 cells derived from SW480),IC50 ([2]; Tcf 33.13 cells derived from SW480)
"CNc1nc(NCc2ccc(NC(=O)c3ccc(Cl)cc3)cc2)c2cc(-c3ccco3)cc(C)c2n1 [Example 67, 4-chloro-N-[4-({[6-(2-furyl)-8-methyl-2-(methylamino)quinazolin-4-yl]amino}methyl)phenyl]benzamide]",> 10000 nM,1450 nM,1210 nM,–,–,–
"Cc1ccc2c(NCc3ccc(NC(=O)Nc4ccc(F)cc4)cc3)nc(N(C)C)nc2c1 [Example 180, N-[4-({[2-(dimethylamino)-7-methylquinazolin-4-yl]amino}methyl)phenyl]-N′-(4-fluorophenyl)urea]",> 5610 nM,2020 nM,1460 nM,–,–,–
"Cc1ccc2c(NCc3ccc(NC(=O)C4CCN(Cc5ccccc5)CC4)cc3)nc(N3CCN[C@H](C)C3)nc2c1 [Example 143, 1-benzyl-N-{4-[({7-methyl-2-[(3R)-3-methylpiperazin-1-yl]quinazolin-4-yl}amino)methyl]phenyl}piperidine-4-carboxamide]",> 8870 nM,1470 nM,1930 nM,–,–,–
"CN(C)c1nc(NCc2ccc(NC(=O)c3ccc(Cl)nc3)cc2)c2ccccc2n1 [Example 128, 6-chloro-N-[4-({[2-(dimethylamino)quinazolin-4-yl]amino}methyl)phenyl]nicotinamide]",> 23100 nM,708 nM,1130 nM,–,–,–
"CN(C)c1nc(NCc2ccc(NC(=O)C3CCN(Cc4ccc(F)cc4)CC3)cc2)c2cc(C(F)(F)F)ccc2n1 [Example 154, N-[4-({[2-(dimethylamino)-6-(trifluoromethyl)quinazolin-4-yl]amino}methyl)phenyl]-1-(4-fluorobenzyl)piperidine-4-carboxamide]",> 8610 nM,4190 nM,3590 nM,–,–,–
"Cc1ccc2nc(N(C)C)nc(N[C@@H](C)c3ccc(NC(=O)c4ccc(Cl)nc4)cc3)c2c1 [Example 274, (S)-6-chloro-N-(4-(1-(2-(dimethylamino)-6-methylquinazolin-4-ylamino)ethyl)phenyl)nicotinamide]",> 9360 nM,1840 nM,1010 nM,–,–,–
"Cc1ccc2c(NCc3ccc(NC(=O)C4CCN(C5CCCCC5)CC4)cc3)nc(N(C)C)nc2c1 [Example 245, 1-cyclohexyl-N-[4-({[2-(dimethylamino)-7-methylquinazolin-4-yl]amino}methyl)phenyl]piperidine-4-carboxamide]",> 9990 nM,809 nM,754 nM,–,–,–
"CN(C)c1nc(NCc2ccc(NC(=O)c3ccc(F)cc3)cc2)c2cc(CO)ccc2n1 [Example 71, N-[4-({[2-(dimethylamino)-6-(hydroxymethyl)quinazolin-4-yl]amino}methyl)phenyl]-4-fluorobenzamide]",> 11200 nM,2340 nM,2990 nM,–,–,–
"CN(C)c1nc(NCc2ccc(NC(=O)c3ccc(Cl)cc3)cc2)c2cc(C(F)(F)F)ccc2n1 [Example 161, 4-chloro-N-[4-({[2-(dimethylamino)-6-(trifluoromethyl)quinazolin-4-yl]amino}methyl)phenyl]benzamide]",> 10000 nM,1520 nM,1710 nM,–,–,–
"C/C=C/c1ccc2nc(N(C)C)nc(NCc3ccc(C(=O)Nc4ccc(F)cc4)cc3)c2c1 [Example 174, E-4-((2-dimethylamino)-6-(prop-1-enyl)quinazolin-4-ylamino)methyl-N-(4-fluorophenyl)benzamide]",–,–,–,> 5080 nM,436 nM,359 nM
"CNc1nc(NCc2ccc(NC(=O)c3ccc(Cl)cc3Cl)cc2)c2cc(C)ccc2n1 [Example 19, 2,4-dichloro-N-[4-({[6-methyl-2-(methylamino)quinazolin-4-yl]amino}methyl)phenyl]benzamide]",> 21400 nM,12800 nM,> 21400 nM,–,–,–
"Cc1ccc2c(N[C@@H](C)c3ccc(NC(=O)C4CCN(Cc5ccc(F)c(F)c5)CC4)cc3)nc(N(C)C)nc2c1 [Example 268, 1-(3,4-difluorobenzyl)-N-[4-((1S)-1-{[2-(dimethylamino)-7-methylquinazolin-4-yl]amino}ethyl)phenyl]piperidine-4-carboxamide]",> 7870 nM,203 nM,215 nM,–,–,–
"Cc1ccc2c(NCc3ccc(NC(=O)C4CCN(Cc5ccccc5)CC4)cc3)nc(N(C)C)nc2c1 [Example 129, 1-benzyl-N-[4-({[2-(dimethylamino)-7-methylquinazolin-4-yl]amino}methyl)phenyl]piperidine-4-carboxamide]",> 9170 nM,754 nM,738 nM,–,–,–
"CN1CCN(c2nc(NCc3ccc(NC(=O)c4ccc(F)cc4)cc3)c3ccccc3n2)CC1 [Example 116, 4-fluoro-N-[4-({[2-(4-methylpiperazin-1-yl)quinazolin-4-yl]amino}methyl)phenyl]benzamide]",> 21300 nM,3040 nM,3440 nM,–,–,–
"CN(C)c1nc(NCc2ccc(NC(=O)c3ccc(F)cc3)cc2)c2ccc(-c3cc4ccccc4o3)cc2n1 [Example 101, N-[4-({[7-(1-benzofuran-2-yl)-2-(dimethylamino)quinazolin-4-yl]amino}methyl)phenyl]-4-fluorobenzamide]",> 17600 nM,2950 nM,2250 nM,–,–,–
"Cc1ccc2nc(N3CC=CC3)nc(NCc3ccc(NC(=O)C4CCN(Cc5ccccc5)CC4)cc3)c2c1 [Example 80, 1-benzyl-N-[4-({[2-(2,5-dihydro-1H-pyrrol-1-yl)-6-methylquinazolin-4-yl]amino}methyl)phenyl]piperidine-4-carboxamide]",> 9390 nM,597 nM,761 nM,–,–,–
"CCN(CC)c1nc(NCc2ccc(NC(=O)C3CCN(Cc4ccc(F)cc4)CC3)cc2)c2cc(C(F)(F)F)ccc2n1 [Example 158, N-[4-({[2-(diethylamino)-6-(trifluoromethyl)quinazolin-4-yl]amino}methyl)phenyl]-1-(4-fluorobenzyl)piperidine-4-carboxamide]",> 8210 nM,3850 nM,> 4110 nM,–,–,–

# Further lines, results first:
"IC50 ([1]; Homo sapiens, SV5A8, 24 h)","IC50 [2, 3]","IC50 [2, 4]",IC50 [1],IC50 ([2]; Tcf 22C11 cells derived from SW480),IC50 ([2]; Tcf 33.13 cells derived from SW480),Structure (SMILES)
> 1240 nM,549 nM,522 nM,–,–,–,"CNc1nc(N[C@@H](C)c2ccc(NC(=O)c3ccc(F)cc3)cc2)c2cccc(C)c2n1 [Example 275, (S)-4-fluoro-N-(4-(1-(8-methyl-2-(methylamino)quinazolin-4-ylamino)ethyl)phenyl)benzamide]"
> 1370 nM,795 nM,850 nM,–,–,–,"O=C(Nc1ccc(CNc2nc(NC3CCCC3)nc3ccccc23)cc1)c1ccc(F)cc1 [Example 120, N-[4-({[2-(cyclopentylamino)quinazolin-4-yl]amino}methyl)phenyl]-4-fluorobenzamide]"
> 1340 nM,332 nM,674 nM,–,–,–,"O=C(Nc1ccc(CNc2nc(NCc3ccco3)nc3ccccc23)cc1)c1ccc(F)cc1 [Example 124, 4-fluoro-N-{4-[({2-[(2-furylmethyl)amino]quinazolin-4-yl}amino)methyl]phenyl}benzamide]"
> 2670 nM,1230 nM,1380 nM,–,–,–,"CNc1nc(NCc2ccc(NC(=O)c3ccc(OC(F)(F)F)cc3)cc2)c2ccccc2n1 [Example 22, N-[4-({[2-(methylamino)quinazolin-4-yl]amino}methyl)phenyl]-4-(trifluoromethoxy)benzamide]"
> 681 nM,194 nM,223 nM,–,–,–,"C=Cc1ccc2nc(N(C)C)nc(NCc3ccc(NC(=O)c4ccc(Cl)nc4)cc3)c2c1 [Example 73, 6-chloro-N-[4-({[2-(dimethylamino)-6-vinylquinazolin-4-yl]amino}methyl)phenyl]nicotinamide]"
> 4560 nM,491 nM,804 nM,–,–,–,"Cc1ccc2c(NCc3ccc(NC(=O)c4ccc(F)cc4)cc3)nc(N3CCN(c4ccccn4)CC3)nc2c1 [Example 200, 4-fluoro-N-[4-({[7-methyl-2-(4-pyridin-2-ylpiperazin-1-yl)quinazolin-4-yl]amino}methyl)phenyl]benzamide]"
> 2220 nM,530 nM,771 nM,–,–,–,"Cc1ccc2nc(N3CCN[C@H](C)C3)nc(NCc3ccc(NC(=O)C4CCN(Cc5ccccc5)CC4)cc3)c2c1 [Example 85, 1-benzyl-N-{4-[({6-methyl-2-[(3R)-3-methylpiperazin-1-yl]quinazolin-4-yl}amino)methyl]phenyl}piperidine-4-carboxamide]"
> 4230 nM,933 nM,1140 nM,–,–,–,"CNc1nc(NCc2ccc(NC(=O)c3ccc(Br)cc3)cc2)c2cccc(C)c2n1 [Example 265, 4-bromo-N-[4-({[8-methyl-2-(methylamino)quinazolin-4-yl]amino}methyl)phenyl]benzamide]"
> 4170 nM,328 nM,347 nM,–,–,–,"Cc1ccc2c(NCc3ccc(NC(=O)C4CCN(Cc5cccc(F)c5)CC4)cc3)nc(N(C)C)nc2c1 [Example 261, N-[4-({[2-(dimethylamino)-7-methylquinazolin-4-yl]amino}methyl)phenyl]-1-(3-fluorobenzyl)piperidine-4-carboxamide]"
> 2790 nM,1720 nM,1280 nM,–,–,–,"CNc1nc(NCc2ccc(NC(=O)c3ccc(Cl)cc3)cc2)c2cc(OC)ccc2n1 [Example 33, 4-chloro-N-[4-({[6-methoxy-2-(methylamino)quinazolin-4-yl]amino}methyl)phenyl]benzamide]"
